In ChEMBL document CHEMBL5380868, “Filling a nick in NIK: Extending the half-life of a NIK inhibitor through structure-based drug design” (Bioorg Med Chem Lett, 2023):
Converted amounts (≈) assume the structure as drawn.

Key:
[1] = Oral bioavailability in Sprague-Dawley rat at 5 mg/kg; type: ADME, organism-based; conditions: in vivo
[2] = Inhibition of Herpes simplex virus thymidine kinase in HEK293 cells by Renilla luciferase based assay; type: cell-based; conditions: Herpesviridae sp.
HEK293 = assay: Inhibition of Herpes simplex virus thymidine kinase in HEK293 cells assessed as maximal inhibition by Renilla luciferase based assay relative to control; type: cell-based; conditions: Herpesviridae sp.
[3] = Volume of distribution in Sprague-Dawley rat; type: ADME; conditions: in vivo
[4] = Oral bioavailability in Cynomolgus monkey at 5 mg/kg; type: ADME, organism-based, Macaca fascicularis; conditions: in vivo
[5] = Oral bioavailability in non-naive Beagle dog at 5 mg/kg; type: ADME, organism-based, Canis lupus familiaris; conditions: in vivo
[6] = Oral bioavailability in C57BL/6J mouse at 50 mg/kg; type: ADME, organism-based; conditions: in vivo
[7] = Kinetic solubility of compound in PBS at pH 7.4; type: physicochemical; conditions: read-out: Kinetic_solubility
[8] = Volume of distribution in Cynomolgus monkey; type: ADME, Macaca fascicularis; conditions: in vivo
[9] = Volume of distribution in C57BL/6J mouse; type: ADME; conditions: in vivo
[10] = Volume of distribution in non-naive Beagle dog; type: ADME, Canis lupus familiaris; conditions: in vivo
[11] = target: Leucine-rich repeat serine/threonine-protein kinase 2 (Homo sapiens) (UniProt Q5S007); assay: Inhibition of recombinant human LRRK2 at 1 uM relative to control
Leucine-rich repeat serine/threonine-protein kinase 2 (Homo sapiens), sequence (Q5S007 whole entry): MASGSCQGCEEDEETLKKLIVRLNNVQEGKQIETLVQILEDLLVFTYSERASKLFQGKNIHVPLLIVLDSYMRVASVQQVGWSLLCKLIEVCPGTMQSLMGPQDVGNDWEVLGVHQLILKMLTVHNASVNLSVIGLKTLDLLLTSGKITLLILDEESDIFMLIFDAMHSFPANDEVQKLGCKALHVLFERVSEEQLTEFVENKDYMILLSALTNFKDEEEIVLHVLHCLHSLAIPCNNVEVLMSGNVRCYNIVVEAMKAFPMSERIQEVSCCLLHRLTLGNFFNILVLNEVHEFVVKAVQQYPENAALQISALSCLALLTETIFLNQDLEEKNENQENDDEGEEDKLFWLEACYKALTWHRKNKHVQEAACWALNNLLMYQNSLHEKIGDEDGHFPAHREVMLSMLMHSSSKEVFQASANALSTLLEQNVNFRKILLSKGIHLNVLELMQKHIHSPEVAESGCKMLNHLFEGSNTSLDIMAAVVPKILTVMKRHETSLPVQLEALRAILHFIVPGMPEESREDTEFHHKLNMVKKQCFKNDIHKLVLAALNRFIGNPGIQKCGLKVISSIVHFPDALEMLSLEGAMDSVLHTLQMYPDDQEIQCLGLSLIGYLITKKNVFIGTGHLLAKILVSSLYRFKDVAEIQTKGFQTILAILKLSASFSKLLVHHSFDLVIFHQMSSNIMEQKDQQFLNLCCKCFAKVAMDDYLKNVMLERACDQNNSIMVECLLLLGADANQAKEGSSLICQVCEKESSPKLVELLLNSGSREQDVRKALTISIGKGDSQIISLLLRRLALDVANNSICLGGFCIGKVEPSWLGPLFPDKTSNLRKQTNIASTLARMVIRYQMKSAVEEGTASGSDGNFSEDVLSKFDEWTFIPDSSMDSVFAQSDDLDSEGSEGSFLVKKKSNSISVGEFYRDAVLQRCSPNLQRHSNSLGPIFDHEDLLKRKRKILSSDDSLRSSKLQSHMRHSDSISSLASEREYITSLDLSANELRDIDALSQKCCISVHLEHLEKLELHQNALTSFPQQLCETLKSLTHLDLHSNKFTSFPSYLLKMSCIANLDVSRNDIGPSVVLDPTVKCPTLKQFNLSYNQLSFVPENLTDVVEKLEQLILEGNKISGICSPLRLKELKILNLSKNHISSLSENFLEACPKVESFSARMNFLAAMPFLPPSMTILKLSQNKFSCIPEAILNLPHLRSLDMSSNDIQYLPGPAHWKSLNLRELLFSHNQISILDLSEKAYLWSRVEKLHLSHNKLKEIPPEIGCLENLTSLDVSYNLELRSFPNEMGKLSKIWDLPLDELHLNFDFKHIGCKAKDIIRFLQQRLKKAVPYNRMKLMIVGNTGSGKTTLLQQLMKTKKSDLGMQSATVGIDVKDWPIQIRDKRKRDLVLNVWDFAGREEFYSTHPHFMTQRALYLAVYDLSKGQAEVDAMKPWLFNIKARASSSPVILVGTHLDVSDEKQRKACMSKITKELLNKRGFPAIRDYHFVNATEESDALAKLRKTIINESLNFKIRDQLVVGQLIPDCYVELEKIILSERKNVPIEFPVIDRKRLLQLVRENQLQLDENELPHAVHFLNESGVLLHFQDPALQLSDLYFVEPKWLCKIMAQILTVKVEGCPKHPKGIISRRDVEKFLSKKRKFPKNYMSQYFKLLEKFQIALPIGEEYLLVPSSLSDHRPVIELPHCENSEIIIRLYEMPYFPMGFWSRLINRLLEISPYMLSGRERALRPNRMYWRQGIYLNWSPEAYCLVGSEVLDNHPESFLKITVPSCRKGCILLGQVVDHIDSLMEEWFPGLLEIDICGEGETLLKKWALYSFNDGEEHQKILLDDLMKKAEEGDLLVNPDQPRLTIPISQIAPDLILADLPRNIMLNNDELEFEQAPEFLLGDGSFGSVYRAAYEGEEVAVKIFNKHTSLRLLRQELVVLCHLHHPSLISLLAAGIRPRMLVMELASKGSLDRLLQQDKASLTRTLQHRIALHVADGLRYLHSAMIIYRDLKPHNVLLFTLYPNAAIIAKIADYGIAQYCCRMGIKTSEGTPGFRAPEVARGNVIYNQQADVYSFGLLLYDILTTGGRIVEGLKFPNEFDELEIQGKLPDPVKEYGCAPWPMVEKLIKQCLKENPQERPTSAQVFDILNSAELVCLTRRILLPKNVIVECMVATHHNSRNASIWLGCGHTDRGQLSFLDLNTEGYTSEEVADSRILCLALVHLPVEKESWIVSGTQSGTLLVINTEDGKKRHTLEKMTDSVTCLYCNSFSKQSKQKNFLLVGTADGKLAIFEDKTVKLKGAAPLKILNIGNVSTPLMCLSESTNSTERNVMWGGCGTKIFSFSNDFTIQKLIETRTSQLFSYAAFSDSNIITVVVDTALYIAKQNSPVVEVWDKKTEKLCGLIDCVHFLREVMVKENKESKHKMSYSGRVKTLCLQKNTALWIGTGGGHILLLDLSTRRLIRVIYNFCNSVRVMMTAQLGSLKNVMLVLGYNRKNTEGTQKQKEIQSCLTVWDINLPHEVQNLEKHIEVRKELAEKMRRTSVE

[12] = Oral bioavailability in C57BL/6J mouse at 10 mg/kg; type: ADME, organism-based; conditions: in vivo
[13] = Hepatic clearance in cynomolgus monkey hepatocytes; type: ADME, cell-based, Macaca fascicularis, Hepatocyte
[14] = target: T1, Mitogen-activated protein kinase kinase kinase 14 (Homo sapiens, UniProt Q99558); assay: Inhibition of NIK in HEK-293 cells assessed as inhibition of NIK-dependent NF-kappaB response element expression by firefly luciferase reporter gene based analysis; type: cell-based, HEK293
T1 sequence (Q99558 whole entry): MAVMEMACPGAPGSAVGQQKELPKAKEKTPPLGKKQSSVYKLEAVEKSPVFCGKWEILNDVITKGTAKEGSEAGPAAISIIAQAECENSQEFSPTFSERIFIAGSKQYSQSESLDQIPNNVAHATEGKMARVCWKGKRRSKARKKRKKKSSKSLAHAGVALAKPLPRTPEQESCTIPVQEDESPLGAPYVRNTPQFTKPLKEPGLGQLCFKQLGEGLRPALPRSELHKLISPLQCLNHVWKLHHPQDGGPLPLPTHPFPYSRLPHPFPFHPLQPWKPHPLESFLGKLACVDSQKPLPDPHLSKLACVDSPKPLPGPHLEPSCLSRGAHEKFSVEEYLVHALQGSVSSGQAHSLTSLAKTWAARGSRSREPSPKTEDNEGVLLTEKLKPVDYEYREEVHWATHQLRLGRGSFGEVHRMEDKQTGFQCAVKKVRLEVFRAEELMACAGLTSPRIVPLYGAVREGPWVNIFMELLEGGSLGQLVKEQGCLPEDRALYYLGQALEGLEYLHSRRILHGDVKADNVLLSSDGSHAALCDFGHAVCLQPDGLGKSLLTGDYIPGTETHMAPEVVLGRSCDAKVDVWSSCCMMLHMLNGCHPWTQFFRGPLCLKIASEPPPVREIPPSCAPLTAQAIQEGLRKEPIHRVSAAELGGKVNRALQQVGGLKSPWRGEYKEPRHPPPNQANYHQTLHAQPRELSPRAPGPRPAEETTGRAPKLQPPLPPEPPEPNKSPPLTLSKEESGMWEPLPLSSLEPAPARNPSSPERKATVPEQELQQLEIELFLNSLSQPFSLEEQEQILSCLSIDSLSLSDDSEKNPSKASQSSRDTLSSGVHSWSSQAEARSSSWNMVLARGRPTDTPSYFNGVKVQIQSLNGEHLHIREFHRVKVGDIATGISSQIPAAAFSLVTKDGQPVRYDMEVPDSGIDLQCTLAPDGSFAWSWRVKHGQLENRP

[15] = Half life in iv dosed C57BL/6J mouse; type: ADME, organism-based; conditions: in vivo
[16] = Plasma clearance in iv dosed C57BL/6J mouse; type: ADME, organism-based
[17] = Half life in iv dosed Sprague-Dawley rat; type: ADME, organism-based; conditions: in vivo
[18] = Plasma clearance in iv dosed non-naive Beagle dog; type: ADME, organism-based, Canis lupus familiaris
[19] = Hepatic clearance in rat hepatocytes; type: ADME, cell-based, Hepatocyte
[20] = Unbound plasma clearance in iv dosed non-naive Beagle dog; type: ADME, organism-based, Canis lupus familiaris; conditions: in vivo
[21] = Hepatic clearance in mouse liver microsomes; type: ADME, Microsome
[22] = Unbound plasma clearance in iv dosed Sprague-Dawley rat; type: ADME, organism-based; conditions: in vivo
[23] = Oral bioavailability in Cynomolgus monkey at 1 mg/kg; type: ADME, organism-based, Macaca fascicularis; conditions: in vivo
[24] = Half life in iv dosed non-naive Beagle dog; type: ADME, organism-based, Canis lupus familiaris; conditions: in vivo
[25] = Unbound plasma clearance in iv dosed Cynomolgus monkey; type: ADME, organism-based, Macaca fascicularis; conditions: in vivo
[26] = Oral bioavailability in non-naive Beagle dog at 1 mg/kg; type: ADME, organism-based, Canis lupus familiaris; conditions: in vivo
[27] = target: T1, Mitogen-activated protein kinase kinase kinase 14; assay: Inhibition of NIK in HUVEC cells assessed as inhibition of anti-[…]-stimulated p52 nuclear translocation; type: cell-based
[28] = Hepatic clearance in rat liver microsomes; type: ADME, Microsome
[29] = Half life in iv dosed Cynomolgus monkey; type: ADME, organism-based, Macaca fascicularis; conditions: in vivo
[30] = Hepatic clearance in human hepatocytes; type: ADME, cell-based, Hepatocyte
[31] = target: Mitogen-activated protein kinase kinase kinase kinase 5 (Homo sapiens) (UniProt Q9Y4K4); assay: Inhibition of recombinant human KHS1 at 1 uM relative to control
[32] = target: T1, Mitogen-activated protein kinase kinase kinase 14; assay: Inhibition of NIK in human primary B cell assessed as inhibition of CD40L-stimulated nuclear translocation of p52 in cell based assay
[33] = Lipophilicity, logD of the compound at pH 7.4 by shake flask method based LC-MS analysis; type: physicochemical; conditions: buffer
[34] = Hepatic clearance in dog hepatocytes; type: ADME, cell-based, Canis lupus familiaris, Hepatocyte
[35] = target: Serine/threonine-protein kinase D1 (Homo sapiens) (UniProt Q15139); assay: Inhibition of recombinant human PKD1 at 1 uM relative to control
Serine/threonine-protein kinase D1 (Homo sapiens), sequence (Q15139 whole entry, looked up): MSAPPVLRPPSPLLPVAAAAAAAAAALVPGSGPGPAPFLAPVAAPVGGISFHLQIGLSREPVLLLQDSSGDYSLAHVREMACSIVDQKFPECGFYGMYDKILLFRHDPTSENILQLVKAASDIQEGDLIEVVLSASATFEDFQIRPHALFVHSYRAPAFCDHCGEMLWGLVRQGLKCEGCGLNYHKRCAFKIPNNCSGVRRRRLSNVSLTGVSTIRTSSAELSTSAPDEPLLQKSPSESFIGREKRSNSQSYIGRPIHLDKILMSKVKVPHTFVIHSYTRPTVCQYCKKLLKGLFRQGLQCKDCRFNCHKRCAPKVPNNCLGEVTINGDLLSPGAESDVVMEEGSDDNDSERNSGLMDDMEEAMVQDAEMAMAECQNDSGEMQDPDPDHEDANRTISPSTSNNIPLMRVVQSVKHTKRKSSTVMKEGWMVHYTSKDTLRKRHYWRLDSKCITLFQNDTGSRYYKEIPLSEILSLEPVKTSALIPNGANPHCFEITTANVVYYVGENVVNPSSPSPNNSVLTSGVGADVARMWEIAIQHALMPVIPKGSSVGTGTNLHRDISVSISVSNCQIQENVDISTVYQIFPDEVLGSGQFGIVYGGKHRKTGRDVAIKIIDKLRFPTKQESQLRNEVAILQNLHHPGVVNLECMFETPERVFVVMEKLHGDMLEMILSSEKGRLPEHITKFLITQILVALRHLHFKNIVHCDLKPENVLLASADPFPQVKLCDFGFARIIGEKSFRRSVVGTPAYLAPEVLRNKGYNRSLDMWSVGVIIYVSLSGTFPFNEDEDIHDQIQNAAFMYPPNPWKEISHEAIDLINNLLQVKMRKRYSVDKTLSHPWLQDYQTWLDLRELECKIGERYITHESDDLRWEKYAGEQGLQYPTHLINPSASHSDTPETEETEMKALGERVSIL

[36] = Hepatic clearance in mouse hepatocytes; type: ADME, cell-based, Hepatocyte
[37] = Hepatic clearance in human liver microsomes; type: ADME, Microsome
[38] = Plasma clearance in iv dosed Sprague-Dawley rat; type: ADME, organism-based
[39] = Plasma clearance in iv dosed Cynomolgus monkey; type: ADME, organism-based, Macaca fascicularis; conditions: in vivo
[40] = target: T1, Mitogen-activated protein kinase kinase kinase 14; assay: Inhibition of NIK (unknown origin) catalyzed ATP hydrolysis by fluorescence polarization method
[41] = Hepatic clearance in dog liver microsomes; type: ADME, Canis lupus familiaris, Microsome
[42] = Hepatic clearance in cynomolgus monkey liver microsomes; type: ADME, Macaca fascicularis, Microsome
[43] = Unbound plasma clearance in iv dosed C57BL/6J mouse; type: ADME, organism-based; conditions: in vivo

**Q.** With `CN1CC[C@@](O)(C#Cc2cccc(-n3nc(C(N)=O)c4cccnc43)c2)C1=O` as the compound, how does the bioavailability [1] read?
**A.** Its bioavailability is 62%.

**Q.** What about the IC50 [2] of the same compound?
**A.** The IC50 was over 2 µM.

**Q.** And the Imax (HEK293)?
**A.** The Imax was 7%.

**Q.** What about the Vd [3] of the same compound?
**A.** The Vd was 2.9 L/kg.

**Q.** And the bioavailability [4]?
**A.** The bioavailability was over 100%.

**Q.** And the bioavailability [5]?
**A.** The bioavailability was 44%.

**Q.** What about the bioavailability [6] of the same compound?
**A.** The bioavailability was 72%.

**Q.** What about the solubility kinetic [7] of the same compound?
**A.** The solubility kinetic was 122 µM (≈ 45.8 µg/mL).

**Q.** And the Vd [8]?
**A.** The Vd was 1.1 L/kg.

**Q.** And the Vd [9]?
**A.** Its Vd is 0.5 L/kg.

**Q.** What about the Vd [10] of the same compound?
**A.** Its Vd is 0.8 L/kg.

**Q.** And the inhibition [11]?
**A.** The inhibition was 59%.

**Q.** Which results are given for `CN1C(=O)[C@](O)(C#Cc2cccc(-n3nc(C(N)=O)c4cccnc43)c2)[C@H]2C[C@H]21`?
**A.** bioavailability [12]: 49%; CLH [13]: < 8.8 mL/min/kg; bioavailability [1]: > 100%; IC50 [14]: 0.053 µM; IC50 [2]: > 2 µM; half-life [15]: 1.5 h; clearance [16]: 11 mL/min/kg; half-life [17]: 0.7 h; clearance [18]: 7.1 mL/min/kg; CLhep predicted [19]: < 10 mL/min/kg; Imax (HEK293): 6%; CL free [20]: 68 mL/min/kg; CLhep predicted [21]: 29 mL/min/kg; CL free [22]: 656 mL/min/kg; bioavailability [23]: 65%; half-life [24]: 4.8 h; Vd [3]: 2.6 L/kg; CL free [25]: 95 mL/min/kg; bioavailability [26]: 78%; IC50 [27]: 0.055 µM; CLhep predicted [28]: 18 mL/min/kg; half-life [29]: 4.9 h; CLhep predicted [30]: < 6.2 mL/min/kg; inhibition [31]: 89%; IC50 [32]: 0.33 µM; logD [33]: 1.8; CLhep predicted [34]: < 7.8 mL/min/kg; solubility kinetic [7]: 92 µM (≈ 35.6 µg/mL); inhibition [35]: 79%; CLhep predicted [36]: < 21 mL/min/kg; CLhep predicted [37]: 5.8 mL/min/kg; clearance [38]: 42 mL/min/kg; clearance [39]: 6.7 mL/min/kg; Vd [8]: 2 L/kg; Vd [9]: 1.1 L/kg; IC50 [40]: 0.002 µM; CLhep predicted [41]: 14 mL/min/kg; Vd [10]: 1.2 L/kg; CLhep predicted [42]: 15 mL/min/kg; CL free [43]: 367 mL/min/kg; inhibition [11]: 6%

**Q.** Which inhibition [11] does the source give for `COc1cc(C(N)=O)nc(-c2cccc(C#C[C@]3(O)CCN(C)C3=O)c2)c1` here?
**A.** The inhibition was 82%.
